Test results reported in ChEMBL document CHEMBL1201862, “PubChem BioAssay data set” (2004).
Calls of active or inactive are those of the source.

What was measured:
[1] = target: T1, DNA repair and recombination protein RAD54-like (Homo sapiens, UniProt Q92698); experiment: RAD54 Holliday junction migration blockers – biochemical, fluorescence, cherry-picked samples, dose series, confirmation (AID 651657); assay type: functional
T1 sequence (Q92698 whole entry): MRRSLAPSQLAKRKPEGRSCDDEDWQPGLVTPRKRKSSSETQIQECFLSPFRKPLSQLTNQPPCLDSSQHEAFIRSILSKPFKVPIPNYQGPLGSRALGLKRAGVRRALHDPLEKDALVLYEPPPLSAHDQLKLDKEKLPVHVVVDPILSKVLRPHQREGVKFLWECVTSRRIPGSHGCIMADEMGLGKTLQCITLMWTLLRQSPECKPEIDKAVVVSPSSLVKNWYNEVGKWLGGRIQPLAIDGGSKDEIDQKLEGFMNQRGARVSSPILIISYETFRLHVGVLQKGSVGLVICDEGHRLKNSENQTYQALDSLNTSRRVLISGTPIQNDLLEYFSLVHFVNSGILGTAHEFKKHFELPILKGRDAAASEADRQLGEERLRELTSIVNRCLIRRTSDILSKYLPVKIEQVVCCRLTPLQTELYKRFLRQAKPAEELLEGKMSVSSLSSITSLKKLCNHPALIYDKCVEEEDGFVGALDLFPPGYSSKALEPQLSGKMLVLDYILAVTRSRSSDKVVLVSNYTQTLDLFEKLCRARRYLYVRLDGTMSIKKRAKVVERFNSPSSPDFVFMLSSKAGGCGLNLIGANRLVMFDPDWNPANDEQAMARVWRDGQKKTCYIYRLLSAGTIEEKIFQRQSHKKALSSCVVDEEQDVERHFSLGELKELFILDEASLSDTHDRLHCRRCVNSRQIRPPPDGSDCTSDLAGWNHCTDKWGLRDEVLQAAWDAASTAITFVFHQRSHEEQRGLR

[2] = target: DNA dC->dU-editing enzyme APOBEC-3G (Homo sapiens, UniProt Q9HC16); assay type: functional;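 also: Dose-response counterscreen measuring inhibition of APOBEC3G DNA deaminase activity, run while confirming APOBEC3A inhibitors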
[3] = target: T2, DNA repair protein RAD52 homolog (Homo sapiens, UniProt P43351); assay type: functional, biochemical
T2 sequence (P43351 whole entry): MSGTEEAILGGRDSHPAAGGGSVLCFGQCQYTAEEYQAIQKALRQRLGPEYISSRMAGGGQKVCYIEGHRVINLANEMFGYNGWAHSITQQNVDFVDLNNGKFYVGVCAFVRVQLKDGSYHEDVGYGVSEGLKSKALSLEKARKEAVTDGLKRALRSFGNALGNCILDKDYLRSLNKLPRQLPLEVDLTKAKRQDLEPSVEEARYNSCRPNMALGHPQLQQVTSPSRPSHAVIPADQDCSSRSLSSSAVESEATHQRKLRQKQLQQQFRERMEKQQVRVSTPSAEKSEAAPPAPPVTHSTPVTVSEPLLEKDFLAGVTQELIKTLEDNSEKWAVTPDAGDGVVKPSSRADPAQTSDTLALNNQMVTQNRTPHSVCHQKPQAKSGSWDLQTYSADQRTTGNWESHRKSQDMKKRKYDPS

[4] = cytotoxicity toward MDA-MB-231 breast cancer cells – cell-based, CellTiter-Glo luminescence, cherry-pick, cytotoxicity control for RAD54 inhibitor project, dose response (AID 651692); assay type: functional
[5] = target: DNA dC->dU-editing enzyme APOBEC-3A (Homo sapiens, UniProt P31941); experiment: Dose Response confirmation of small molecule APOBEC3A DNA Deaminase Inhibitors via a fluorescence-based single-stranded DNA deaminase assay. [Related pubchem assays (depositor defined):AID493011, AID493024]; assay type: functional
DNA dC->dU-editing enzyme APOBEC-3A, sequence (P31941 whole entry): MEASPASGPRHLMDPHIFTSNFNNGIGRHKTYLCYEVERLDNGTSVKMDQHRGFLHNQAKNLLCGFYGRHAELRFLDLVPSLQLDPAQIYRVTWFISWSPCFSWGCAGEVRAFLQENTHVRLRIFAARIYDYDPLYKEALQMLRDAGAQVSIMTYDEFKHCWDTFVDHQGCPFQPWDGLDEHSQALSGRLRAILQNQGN

[6] = bead-based luminescence quenchers, dual-tagged ARNT – biochemical, AlphaScreen, cherry-pick, artefact control for ARNT-TACC3 interaction inhibitor project, dose response (AID 651705); assay type: functional;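 also: AlphaScreen bead proximity signal that flags compounds interfering with the detection technology; potency reflects signal decrease which marks the compound as an assay artifact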
[7] = target: Eukaryotic translation initiation factor 4E (Mus musculus, UniProt P63073); experiment: blockers of eIF4G binding by eIF4E – biochemical, TR-FRET, dose response (AID 855); assay type: functional;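 also: potency for disrupting eIF4E binding to eIF4GI seen as loss of FRET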
Eukaryotic translation initiation factor 4E, sequence (P63073 whole entry): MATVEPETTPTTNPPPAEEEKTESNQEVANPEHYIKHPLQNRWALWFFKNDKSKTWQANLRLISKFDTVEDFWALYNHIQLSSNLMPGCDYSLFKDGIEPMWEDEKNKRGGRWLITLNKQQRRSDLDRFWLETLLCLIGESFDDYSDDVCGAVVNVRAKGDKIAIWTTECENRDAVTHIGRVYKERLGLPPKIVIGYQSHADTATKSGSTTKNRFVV

[8] = target: T3, Beta-2 adrenergic receptor (Homo sapiens, UniProt P07550); experiment: ADRB2 activation measured by internalization – cell-based, FAP fluorogen, flow cytometry, cherry pick 1, dose response (AID 588763); assay type: functional
T3 sequence (P07550 whole entry): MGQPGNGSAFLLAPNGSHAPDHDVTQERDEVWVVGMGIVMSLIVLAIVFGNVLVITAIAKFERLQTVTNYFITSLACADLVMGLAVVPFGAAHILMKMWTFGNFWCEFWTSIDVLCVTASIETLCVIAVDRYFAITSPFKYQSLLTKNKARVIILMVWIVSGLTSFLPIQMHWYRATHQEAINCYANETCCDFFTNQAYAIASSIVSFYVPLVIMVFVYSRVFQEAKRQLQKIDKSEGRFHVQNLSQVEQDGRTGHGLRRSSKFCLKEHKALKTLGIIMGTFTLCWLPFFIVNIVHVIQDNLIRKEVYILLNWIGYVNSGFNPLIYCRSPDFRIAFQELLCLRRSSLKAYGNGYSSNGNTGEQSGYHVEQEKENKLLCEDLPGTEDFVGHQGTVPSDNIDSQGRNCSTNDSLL

[9] = target: T3, Beta-2 adrenergic receptor; experiment: Dose response for HTS for Beta-2AR agonists via FAP method from Powderset3.; assay type: functional
[10] = target: ADP-ribosylation factor GTPase-activating protein 1 (Rattus norvegicus, UniProt Q62848); experiment: Fluorescence polarization-based biochemical high throughput dose response screening assay to identify inhibitors of ADP-ribosylation factor GTPase activating protein 1 (ARFGAP1).; assay type: functional
ADP-ribosylation factor GTPase-activating protein 1, sequence (Q62848 whole entry): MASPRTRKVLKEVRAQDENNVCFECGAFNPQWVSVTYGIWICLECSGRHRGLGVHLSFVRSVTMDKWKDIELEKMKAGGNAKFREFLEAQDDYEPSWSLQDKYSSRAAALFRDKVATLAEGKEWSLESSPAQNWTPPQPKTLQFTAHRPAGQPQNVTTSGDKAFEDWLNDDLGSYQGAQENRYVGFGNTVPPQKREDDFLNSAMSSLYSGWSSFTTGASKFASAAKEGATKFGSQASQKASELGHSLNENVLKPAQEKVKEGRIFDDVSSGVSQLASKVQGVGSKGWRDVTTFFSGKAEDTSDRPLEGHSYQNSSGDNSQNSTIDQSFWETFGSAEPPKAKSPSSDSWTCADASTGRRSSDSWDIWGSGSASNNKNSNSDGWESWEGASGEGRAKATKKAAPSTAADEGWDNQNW

[11] = target: Botulinum neurotoxin type F (Clostridium botulinum, UniProt P30996); experiment: High-throughput multiplex microsphere dose response for inhibitors of toxin protease, specifically Botulinum neurotoxin light chain F protease, compounds from Cherry Pick 02.; assay type: functional; conditions: read-out: EC50_MICROM
Botulinum neurotoxin type F, sequence (P30996 1-436 limits assumed): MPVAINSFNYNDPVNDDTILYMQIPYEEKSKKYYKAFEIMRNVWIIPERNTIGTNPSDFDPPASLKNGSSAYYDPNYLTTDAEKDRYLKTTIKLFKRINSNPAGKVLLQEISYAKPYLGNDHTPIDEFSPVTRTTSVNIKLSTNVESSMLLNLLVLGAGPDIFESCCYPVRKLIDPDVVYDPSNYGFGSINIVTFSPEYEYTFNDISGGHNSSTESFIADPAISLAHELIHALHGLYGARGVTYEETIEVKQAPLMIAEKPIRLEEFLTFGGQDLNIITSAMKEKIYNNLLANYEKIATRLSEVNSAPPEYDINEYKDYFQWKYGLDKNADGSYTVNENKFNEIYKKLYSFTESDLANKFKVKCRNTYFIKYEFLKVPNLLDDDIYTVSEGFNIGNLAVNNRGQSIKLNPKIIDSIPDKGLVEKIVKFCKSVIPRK

[12] = target: Platelet-activating factor acetylhydrolase (Mus musculus, UniProt Q60963); experiment: Late stage assay provider results from the probe development effort to identify inhibitors of pPAFAH: fluorescence-based dose-response biochemical gel-based competitive Activity-Based Protein Profiling (ABPP) assay for SAR compounds.; assay type: functional
[13] = target: T4, Scavenger receptor class B member 1 (Mus musculus, UniProt Q61009); experiment: mouse SR-BI DiI-HDL transfer blockers – ldlA[mSR-BI] CHO cells, fluorescence plate reader, dry powder, set 9, dose response (AID 623880); assay type: functional, cell-based
T4 sequence (Q61009 whole entry): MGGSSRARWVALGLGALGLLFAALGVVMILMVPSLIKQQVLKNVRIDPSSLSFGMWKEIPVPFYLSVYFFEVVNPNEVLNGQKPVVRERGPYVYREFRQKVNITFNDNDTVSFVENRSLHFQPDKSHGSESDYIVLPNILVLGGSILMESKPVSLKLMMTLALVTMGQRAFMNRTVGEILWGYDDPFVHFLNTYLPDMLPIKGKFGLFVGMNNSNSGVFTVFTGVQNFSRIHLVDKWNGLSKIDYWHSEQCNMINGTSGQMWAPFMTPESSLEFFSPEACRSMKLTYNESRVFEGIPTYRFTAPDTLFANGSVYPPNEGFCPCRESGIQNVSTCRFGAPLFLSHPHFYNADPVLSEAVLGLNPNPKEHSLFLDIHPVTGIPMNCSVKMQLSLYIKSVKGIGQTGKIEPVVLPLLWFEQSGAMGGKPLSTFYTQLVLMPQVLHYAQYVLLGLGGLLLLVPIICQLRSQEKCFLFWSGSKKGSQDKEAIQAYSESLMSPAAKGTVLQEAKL

[14] = target: T4, Scavenger receptor class B member 1; experiment: blockers of DiI-HDL lipid transfer via SR-BI – cell-based, ldlA[mSR-BI] CHO, DiI fluorescence, dry powder, set 10, dose response (AID 624029); assay type: functional
Interleukin-8 = Interleukin-8 (Homo sapiens, UniProt P10145); experiment: Dose Response confirmation of uHTS small molecule hits for cystic fibrosis induced NFkb Inhibitors in a PAF-induced IL8 counterscreen.; assay type: functional; conditions: read-out: IC50_Mean
Interleukin-8, sequence (P10145 whole entry): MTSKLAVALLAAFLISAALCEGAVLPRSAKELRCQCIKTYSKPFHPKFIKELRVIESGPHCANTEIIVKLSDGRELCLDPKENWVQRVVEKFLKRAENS

[15] = target: Mitochondrial peptide methionine sulfoxide reductase (Bos taurus, UniProt P54149); assay type: functional;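 also: absorbance read-out, biochemical high-throughput dose-response screen for MsrA inhibitors, confirmatory; recombinant bovine MsrA coupled to E. coli TrxB with NADPH and selenocystamine; potency is for inhibitors of MsrA activity on DMSO substrate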
[16] = target: T5, Small ubiquitin-related modifier 1 (Homo sapiens, UniProt P63165); experiment: SUMO1 protein-protein binding blockers, potency – biochemical, FRET, dose response (AID 624383); assay type: functional; conditions: read-out: IC50_Mean
T5 sequence (P63165 whole entry): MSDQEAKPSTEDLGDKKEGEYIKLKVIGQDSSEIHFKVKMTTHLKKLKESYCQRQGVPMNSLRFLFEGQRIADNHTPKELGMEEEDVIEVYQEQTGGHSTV

[17] = target: T6, Small ubiquitin-related modifier 2 (Homo sapiens, UniProt P61956); experiment: disruption of SUMO2 interaction with SIM peptide – biochemical, fluorescence polarization, uHTS hits, selectivity assay for SUMO1 interaction inhibitor project, dose response (AID 624385); assay type: functional; conditions: read-out: IC50_Mean
T6 sequence (P61956 whole entry): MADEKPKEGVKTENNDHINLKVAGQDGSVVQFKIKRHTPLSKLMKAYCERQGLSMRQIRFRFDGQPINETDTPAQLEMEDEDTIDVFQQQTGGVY

[18] = target: T6, Small ubiquitin-related modifier 2; experiment: SUMO2 binding disruption by SUMO1 hits – biochemical, FRET, human SUMO2, uHTS hits, selectivity assay for SUMO1 interaction inhibitor project, dose response (AID 624384); assay type: functional; conditions: read-out: IC50_Mean
Protein RecA = target: T7, Protein RecA (Mycobacterium tuberculosis, UniProt P9WHJ3); experiment: Fluorescence Cell-Free Homogeneous Dose Retest to Identify Inhibitors of RecA-Intein Splicing Activity. [Related pubchem assays (depositor defined):AID2097, AID2223, AID489010, AID492950]; assay type: functional
T7 sequence (P9WHJ3 whole entry): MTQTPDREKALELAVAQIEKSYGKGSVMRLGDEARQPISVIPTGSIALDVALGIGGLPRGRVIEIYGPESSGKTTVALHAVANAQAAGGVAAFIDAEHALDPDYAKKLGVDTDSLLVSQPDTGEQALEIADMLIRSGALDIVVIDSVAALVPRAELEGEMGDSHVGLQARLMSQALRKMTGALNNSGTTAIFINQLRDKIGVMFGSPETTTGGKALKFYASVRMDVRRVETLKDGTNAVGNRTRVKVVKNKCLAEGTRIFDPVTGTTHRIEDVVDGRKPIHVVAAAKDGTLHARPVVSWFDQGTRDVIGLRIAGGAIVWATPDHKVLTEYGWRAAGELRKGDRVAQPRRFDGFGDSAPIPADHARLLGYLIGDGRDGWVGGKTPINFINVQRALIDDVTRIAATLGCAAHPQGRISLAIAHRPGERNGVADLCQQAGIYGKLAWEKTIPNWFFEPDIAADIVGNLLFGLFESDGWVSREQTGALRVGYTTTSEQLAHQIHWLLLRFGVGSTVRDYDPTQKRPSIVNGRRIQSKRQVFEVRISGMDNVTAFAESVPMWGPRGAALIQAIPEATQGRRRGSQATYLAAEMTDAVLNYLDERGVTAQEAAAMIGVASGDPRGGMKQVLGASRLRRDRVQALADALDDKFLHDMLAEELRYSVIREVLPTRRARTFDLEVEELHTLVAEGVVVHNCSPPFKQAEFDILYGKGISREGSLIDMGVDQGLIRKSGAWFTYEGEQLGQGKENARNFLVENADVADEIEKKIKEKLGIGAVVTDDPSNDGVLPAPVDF

[19] = target: T5, Small ubiquitin-related modifier 1; experiment: SUMO1 protein interaction blockers, potency – biochemical, fluorescence polarization, uHTS hits, dose response (AID 624382); assay type: functional; conditions: read-out: IC50_Mean
[20] = target: Induced myeloid leukemia cell differentiation protein Mcl-1 (Homo sapiens, UniProt Q07820); assay type: functional
[21] = target: T8, Replicative DNA helicase DnaB (Mycobacterium tuberculosis, UniProt P9WMR3); experiment: DnaB intein splicing inhibitors, dose response, biochemical, cell-free fluorescence (AID 449749); assay type: functional
T8 sequence (P9WMR3 whole entry): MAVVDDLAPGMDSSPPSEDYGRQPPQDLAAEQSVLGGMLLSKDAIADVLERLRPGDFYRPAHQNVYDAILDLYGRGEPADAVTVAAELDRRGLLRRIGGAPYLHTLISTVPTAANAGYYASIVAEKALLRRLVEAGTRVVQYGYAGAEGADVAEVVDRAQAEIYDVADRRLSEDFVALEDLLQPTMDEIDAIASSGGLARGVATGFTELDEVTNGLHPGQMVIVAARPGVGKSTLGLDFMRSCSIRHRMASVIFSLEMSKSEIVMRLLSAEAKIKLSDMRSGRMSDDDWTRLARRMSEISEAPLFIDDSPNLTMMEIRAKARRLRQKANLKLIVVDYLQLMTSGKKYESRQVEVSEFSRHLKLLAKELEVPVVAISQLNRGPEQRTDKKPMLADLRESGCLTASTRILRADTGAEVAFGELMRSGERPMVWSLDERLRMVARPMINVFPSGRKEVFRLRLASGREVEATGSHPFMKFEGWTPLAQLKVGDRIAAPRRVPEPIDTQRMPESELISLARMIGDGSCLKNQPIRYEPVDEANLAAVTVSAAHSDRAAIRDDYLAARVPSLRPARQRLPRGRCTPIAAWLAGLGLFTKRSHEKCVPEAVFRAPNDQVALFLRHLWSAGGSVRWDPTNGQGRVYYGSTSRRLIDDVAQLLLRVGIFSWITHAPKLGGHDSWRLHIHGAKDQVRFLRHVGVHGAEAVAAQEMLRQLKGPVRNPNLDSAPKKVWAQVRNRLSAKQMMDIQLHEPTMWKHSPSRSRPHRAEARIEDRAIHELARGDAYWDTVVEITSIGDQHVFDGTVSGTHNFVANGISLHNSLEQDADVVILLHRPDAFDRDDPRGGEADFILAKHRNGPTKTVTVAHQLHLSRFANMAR

Cytochrome P450 3A4 = Cytochrome P450 3A4 (Homo sapiens, UniProt P08684); conditions: Potency;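 also: confirmatory qHTS run detecting inhibitors and substrates of CYP3A4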
[22] = target: DNA (cytosine-5)-methyltransferase 1 (Homo sapiens, UniProt P26358); experiment: inhibition of DNA methylation by DNMT1 – biochemical, fluorescent molecular beacon, confirmation (AID 602386); assay type: functional
DNA (cytosine-5)-methyltransferase 1, sequence (P26358 whole entry): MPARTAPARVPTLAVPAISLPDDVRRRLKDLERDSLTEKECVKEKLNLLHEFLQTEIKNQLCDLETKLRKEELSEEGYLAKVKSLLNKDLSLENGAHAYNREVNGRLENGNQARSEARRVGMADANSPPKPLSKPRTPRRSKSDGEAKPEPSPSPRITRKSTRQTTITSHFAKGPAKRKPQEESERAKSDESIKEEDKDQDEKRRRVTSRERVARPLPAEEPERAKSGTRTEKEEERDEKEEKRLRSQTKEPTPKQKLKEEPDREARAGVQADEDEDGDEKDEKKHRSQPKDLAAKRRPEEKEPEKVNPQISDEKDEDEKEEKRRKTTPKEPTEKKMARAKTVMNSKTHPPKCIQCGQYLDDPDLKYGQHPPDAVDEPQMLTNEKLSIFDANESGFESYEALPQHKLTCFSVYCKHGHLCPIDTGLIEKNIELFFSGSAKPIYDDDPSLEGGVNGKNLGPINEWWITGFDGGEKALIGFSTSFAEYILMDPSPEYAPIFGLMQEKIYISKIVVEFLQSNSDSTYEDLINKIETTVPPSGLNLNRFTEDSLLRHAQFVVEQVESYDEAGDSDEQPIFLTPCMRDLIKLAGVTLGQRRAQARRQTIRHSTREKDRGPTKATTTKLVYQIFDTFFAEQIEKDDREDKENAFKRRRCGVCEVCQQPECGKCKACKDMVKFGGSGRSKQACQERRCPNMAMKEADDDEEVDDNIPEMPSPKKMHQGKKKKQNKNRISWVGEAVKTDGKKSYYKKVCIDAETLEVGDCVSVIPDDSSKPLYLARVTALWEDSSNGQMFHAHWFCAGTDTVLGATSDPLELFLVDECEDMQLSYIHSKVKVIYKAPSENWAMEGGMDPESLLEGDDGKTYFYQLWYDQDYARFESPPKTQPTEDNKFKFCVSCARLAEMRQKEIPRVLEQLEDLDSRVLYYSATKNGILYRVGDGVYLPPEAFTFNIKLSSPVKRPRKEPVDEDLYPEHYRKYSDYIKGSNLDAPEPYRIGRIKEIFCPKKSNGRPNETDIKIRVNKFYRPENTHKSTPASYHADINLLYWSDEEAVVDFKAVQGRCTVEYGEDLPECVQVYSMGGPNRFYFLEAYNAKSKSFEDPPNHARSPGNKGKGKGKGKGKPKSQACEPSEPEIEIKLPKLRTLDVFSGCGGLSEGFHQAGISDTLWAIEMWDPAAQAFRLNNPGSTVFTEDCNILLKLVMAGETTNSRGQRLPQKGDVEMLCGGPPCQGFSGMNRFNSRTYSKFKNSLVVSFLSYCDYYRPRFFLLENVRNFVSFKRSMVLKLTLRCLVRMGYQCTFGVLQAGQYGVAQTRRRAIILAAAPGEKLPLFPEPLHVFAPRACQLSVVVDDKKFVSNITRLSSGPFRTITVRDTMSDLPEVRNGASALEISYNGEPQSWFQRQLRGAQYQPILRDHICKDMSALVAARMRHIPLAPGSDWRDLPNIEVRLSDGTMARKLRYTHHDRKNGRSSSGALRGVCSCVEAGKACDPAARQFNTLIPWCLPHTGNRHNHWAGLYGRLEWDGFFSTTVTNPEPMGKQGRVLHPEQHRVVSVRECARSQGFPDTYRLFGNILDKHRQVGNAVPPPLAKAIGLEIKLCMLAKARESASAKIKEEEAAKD

[23] = Counterscreen for activators of the function of SWI/SNF related, matrix associated, actin dependent regulator of chromatin, subfamily a, member 2 (SMARCA2, BRM): Luminescence-based cell-based high throughput dose response assay to identify non-selective compounds using the VP16 reporter assay.; assay type: functional
[24] = target: T9, Polyadenylate-binding protein 1 (Homo sapiens, UniProt P11940); experiment: MLLE binding blockers, Cy5 peptide tracer – biochemical, fluorescence polarization, Cy5-PAM2 peptide, secondary, miRNA deadenylation inhibitor project, dose response (AID 602260); assay type: functional; conditions: read-out: IC50_Mean
T9 sequence (P11940 whole entry): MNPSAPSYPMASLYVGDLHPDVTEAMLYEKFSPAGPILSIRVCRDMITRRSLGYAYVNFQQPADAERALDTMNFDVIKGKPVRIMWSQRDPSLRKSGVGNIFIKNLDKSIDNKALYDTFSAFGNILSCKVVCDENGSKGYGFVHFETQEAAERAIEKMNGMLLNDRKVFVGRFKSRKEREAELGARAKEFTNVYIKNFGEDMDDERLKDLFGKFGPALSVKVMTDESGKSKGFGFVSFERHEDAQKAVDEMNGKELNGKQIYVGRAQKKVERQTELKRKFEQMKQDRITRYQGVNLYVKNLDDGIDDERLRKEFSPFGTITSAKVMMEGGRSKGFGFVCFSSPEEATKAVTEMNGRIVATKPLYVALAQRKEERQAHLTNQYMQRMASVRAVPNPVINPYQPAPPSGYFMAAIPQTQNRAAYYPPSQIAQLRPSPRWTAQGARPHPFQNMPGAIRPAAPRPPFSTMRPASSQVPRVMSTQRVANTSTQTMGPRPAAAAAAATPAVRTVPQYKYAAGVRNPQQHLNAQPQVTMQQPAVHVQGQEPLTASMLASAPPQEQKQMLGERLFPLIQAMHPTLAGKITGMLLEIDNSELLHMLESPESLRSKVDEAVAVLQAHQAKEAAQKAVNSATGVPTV

[25] = target: SWI/SNF-related matrix-associated actin-dependent regulator of chromatin subfamily A member 2 (Homo sapiens, UniProt P51531); experiment: Luminescence-based cell-based high throughput dose response assay to identify activators of the function of SWI/SNF related, matrix associated, actin dependent regulator of chromatin, subfamily a, member 2 (SMARCA2, BRM).; assay type: functional
[26] = target: T9, Polyadenylate-binding protein 1; experiment: MLLE domain peptide-binding blockers, IC50 – biochemical, fluorescence polarization, FITC-PAM2 peptide, dose response (AID 602259); assay type: functional; conditions: read-out: IC50_Mean

CCN1CCN(c2ccc(NC(=O)c3cc4ccccc4cc3OC)cc2C)CC1
AC50 [1]: 52.2 µM (active)
IC50 [2]: 6.67 µM (active)
AC50 [3]: 18.2 µM (active)
AC50 [4]: 36.5 µM (active)
IC50 [5]: 4.24 µM (active)

CC(C)(C)C1=Nn2c(nnc2-c2ccccn2)SC1
AC50 [6]: 107 µM (active)
IC50 [7]: > 64 µM (inactive)

CC1(C)Cc2c(c(N3CCCC3)nc3sc4c(N5CCN(CCO)CC5)ncnc4c23)CO1
EC50 [8]: 8.76 µM (active)
EC50 [9]: 1.71 µM (active)

CCN1CCN(C(=O)Cn2ncc3c4cc(C)ccc4nc-3c2O)CC1
IC50 [10]: 82.7 µM (inactive)

COc1ccccc1Cc1c(-c2ccc(F)cc2)nc2cc(C)c(Br)c(C)n12
EC50 [11]: > 20 µM (inactive)

Cc1cc(N2CCN(C(=O)Oc3ccc(-n4cccc4)cc3)CC2)c2ccccc2n1
IC50 [12]: 0.057 µM (active)

Cc1noc(C)c1S(=O)(=O)Nc1ccc2c(c1)C(=O)N([C@H](C)CO)C[C@@H](C)[C@H](CN(C)S(=O)(=O)c1ccc(Cl)cc1)O2
AC50 [13]: 0.158 µM (active)
AC50 [14]: 0.123 µM (active)

NC(=O)c1cc2ccc(O)cc2o/c1=N\c1ccccc1
IC50 (Interleukin-8): 6.71 µM (active)

C/C(=N\Nc1ccc(S(N)(=O)=O)cc1[N+](=O)[O-])c1cccnc1
IC50 [15]: 155 µM (inactive)

NC1=C2C(=O)c3ccccc3C(=O)C2=C(N)CC1
IC50 [16]: 52.4 µM (inactive)
IC50 [17]: 10.5 µM (active)
IC50 [18]: > 66 µM (inactive)
EC50 (Protein RecA): 3.57 µM (active)
IC50 [19]: 7.71 µM (active)
IC50 [20]: 1.8 µM (not active)
AC50 [21]: 11.3 µM (active)

O=C1c2ccccc2-c2cccc3cccc1c23 [BENZANTHRONE]
AC50 (Cytochrome P450 3A4): 39.8 µM (inconclusive)
IC50 [22]: 41 µM (active)
EC50 [23]: > 91.2 µM (inactive)
IC50 [24]: > 66 µM (inactive)
EC50 [25]: > 91.2 µM (inactive)
IC50 [26]: 34 µM (inactive)
